Reference: US20080057134A1, “Antifungal compositions and method” (AgION Technologies, Inc., priority 2006, published 2008)

System: Aspergillus niger
Assay: Direct inoculation fungal testing of coated filter paper (modified ASTM G21)
Type: cell-based
Conditions: text summary of Tables 1 and 2, Aspergillus niger

Cc1cc(CC(C)CC(C)(C)C)n(O)c(=O)c1.NCCO (stereo not shown) [picrotone olamine, monoethanolamine salt of hydroxymethyl trimethylpentyl pyridone]
antifungal properties / bioefficacy in words: excellent to good antifungal properties
